Tests used:
[1] = system: PpIX fluorescence in human forearm or leg skin areas (hair follicle vs epidermis); assay: Macroscopic PpIX fluorescence imaging of skin after topical photosensitizer precursor; ratio r hair follicle/hairless epidermis; format: in vivo
Protocol: The photosensitizer precursors were formulated within standard excipients of the European Pharmacopoeia, namely unguentum leniens (UL) and unguentum hydrophilicum anionicum (UH); for some essays, the photosensitizer precursors were suspended either in pure glycerol (GLY) or in pure diethylene glycol monoethyl ether (DGME).
The formulations were administered topically on the forearm or the leg using the Tegaderm™ transparent dressing. This dressing enables the transport of water and oxygen according to the specifications of the manufacturer. This dressing was removed and the remaining formulation cleaned with pure ethanol just before the measurements performed at one single point in time. For the pharmacokinetic measurements, this dressing was removed after four hours. This removal of the Tegaderm™ during the remaining time course of the measurements induced negligible minimal alterations of the measurements due to the excellent transparency of this dressing at the wavelengths of interest.
A fluorescence imaging system illustrated by FIG. 9 was developed to assess the extent and level of PpIX production in “macroscopic” samples (parts of the human body such as: forearm, leg, back, etc.). As the goal is to assess the relative level of PpIX in the hair follicle of these samples, red light at 635 nm was chosen as PpIX fluorescence excitation wavelength. It is indeed well known that red light penetrates deeper in the cutaneous tissues than green and violet light, the later two wavelengths corresponding to larger PpIX absorption peaks (see the PpIX fluorescence excitation and emission spectra presented on the right side in FIG. 9).
As presented in the schematic diagram presented in FIG. 9, this fluorescence imaging system involves a modified 300 W D-light source 1 (Xe arc lamp from Storz, Tuttlingen, Germany) equipped with a red bandpass filter (635 nm, 20 nm FWHM; Chroma, USA). This fluorescence excitation light is coupled in a Storz 4 mm diameter light guide 2. The output of this light guide is imaged on the tissue sample 3 with a projection objective 4 (Nikon, Japan; AF Nikkor; 1:1.4 D/50 mm) to generate a homogenous spot of 2.5 cm in diameter with an irradiance of 2 mW/cm^2 at 635 nm. The distance between this projection objective 4 and the sample 3 is 25 cm. Therefore, the light beam illuminating the sample can be considered as parallel. The fluorescence is collected by another objective 5 (Fujinon, Japan; TV zoom lens; 1:1.2/12.5-75 mm; Type H6X12.5R-MD3) through a longpass filter 6 (Schott, Germany; RG665) and the image detected by a scientific CCD camera (752×582 pixels CF 8/1 Kappa, Gleichen, Germany) equipped 7 with an image intensifier (Proxifier BV 256-2FcZ-CH, Proxitronic, Bensheim, Germany). The images are captured by the 8-bits camera frame grabber and saved on the computer 8 with the “Kappa Imagebase-control” software. Image treatment is carried out using the IPLab imaging software. The spatial resolution of the complete setup has been measured with an USAF resolution target and the value we obtained in the sample plan is 3 lp/mm, the size of the image detected by the camera being 3×4 cm^2. A reference sample has been designed to enable a comparison of the relative fluorescence brightness between samples investigated at different times. This reference consists of a ruby disk (diameter: 12 mm; thickness: 1.02 mm; Type 8Sp3, Hans Stettler SA, Lyss, Switzerland) covered with a neutral density filter (T=2.27%) so that the signal obtained with this reference sample corresponds to the typical tissue fluorescence detected in our conditions.
The images were analyzed using the NIH image software. The method consisted in identifying the location of an area corresponding to: 1) one typical hair follicle and 2) epidermis presenting no skin appendages. The number of pixels involved in such an area was typically 100. […]

[2] = system: skin area; conditions: applied 15 to 25 hours, pulsed red light, cited from earlier work
[3] = system: sheep; conditions: light irradiation about 8 to 10 hours later, 600 to 700 nm; cited from earlier work
[4] = system: skin area (hairs, follicles, epidermis); assay: Irradiation of treated skin areas at 635 nm: hair removal and skin reaction; format: in vivo, human; conditions: pure, applied 195 minutes; irradiated 200 minutes later, 30 J/cm^2 at 65 mW/cm^2 (FIG. 7A)
Protocol: The irradiation step of the skin areas treated by means of the various photosensitizer precursor compositions described above was conducted as follows: The irradiation of the skin was performed at 635 nm with an argon ion (Spectra-Physics, model 2020) pumped dye laser (Spectra-Physics, model 375B). The light was coupled in a frontal FD1 light distributor from Medlight SA (Ecublens, Switzerland). This distributor generated a uniform 2 cm in diameter spot. The typical irradiances and light doses were 60 to 130 mW/cm^2 and 30 to 130 J/cm^2, respectively. The irradiance was checked before and after all treatments. The light power delivered by the light distributor was determined using a power meter from Spectra-Physics (Model 407A, Mountain view, Calif., USA).
Thereafter, the skin was cleaned as indicated above. 15 minutes later, the skin area was irradiated with a light dose of 127 J/cm^2 at an irradiance of 127 mW/cm^2.
A first area was submitted to light irradiation after a waiting time equal to 200 minutes with a light dose of 61 J/cm^2 at an irradiance of 42.4 mW/cm^2. […] A second area was submitted to light irradiation 30 minutes after the end of drug administration. The light dose was 130 J/cm^2 at an irradiance of 56.6 mW/cm^2.
Thereafter, the skin was cleaned and irradiated 200 minutes later with a light dose of 30 J/cm^2 at an irradiance of 65 mW/cm^2.

[5] = three hours administration, 20% in DGME
[6] = three hours administration, 20% in glycerol

SMILES	ratio r (hair follicle/epidermis fluorescence) [1, 5]	ratio r (hair follicle/epidermis fluorescence) [1, 6]	ratio r (fluorescence brightness hair follicle area / hairless epidermis area) ([1]; three hours after administration, in unguentum hydrophilicum)	hair removal ([2]; treatment repeated about 4 to 8 times)	duration of sunburn like side effects after an irradiation [2]	side effects in treated skin areas of test animals [3]	wool growth [3]	ratio r (hair follicle/epidermis fluorescence) ([1]; pure, lower leg, 3 hours, normal skin temperature of 31° C.)	ratio r (hair follicle/epidermis fluorescence) ([1]; pure, lower leg, three hours at 41° C. (electric blanket))	skin reaction one day after irradiation [4]	kinetics of the hair follicle/epidermis fluorescence ratio ([1]; 20% in Unguentum Leniens, one volunteer, 0 to 1380 minutes (FIG. 10))
Cl.NCC(=O)CCC(=O)O [ALA, 5-amino-levulinic acid hydrochloride]	2.21	1.62	1.46	effective	2 to 20 days	edema, discoloration and crusting	significantly reduced				
CCOCCOCCOC(=O)CCC(=O)CN [ALA-DGME, diethylene glycol monoethyl ether 5-amino-levulinate]	3.24	2.51						3.47	4.72	a clear reaction selectivity between the skin areas around follicles and the epidermis in bulk	
COC(=O)CCC(=O)CN [m-ALA, methyl ester of ALA]											decreases rapidly during the first hours and tends to unity for longer times
